# “And” between values parts separate entries of the source, which are not always exact repeats. Equal values may be shown once. The source made the active and inactive calls.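 Rule for the calls: active = CPE inhibition of 50% or more; inactive = the rest.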
# System: not listed separately
# Test: RSV cytopathic effect inhibitors, dose response, cell-based, RSV Long, luminescence, synthesized compounds, set 11 (AID 540264)
# Details: HEp-2 RSV Long CPE inhibition, luminescence; at 200 µM (top of the series)
row,SMILES,CPE inhibition
1,COCCCNC(=O)c1ccc(Cn2c(=O)c3ccccc3n(Cc3ccccc3Br)c2=O)cc1,0.32% (inactive)
2,COCCCNC(=O)c1ccc(Cn2c(=O)c3cc(Cl)ccc3n(Cc3ccc(C)cc3)c2=O)cc1,5.48% (inactive)
3,COCCCNC(=O)c1ccc(Cn2c(=O)c3ccccc3n(Cc3ccccc3F)c2=O)cc1,1.77% (inactive)

# System: HEp-2 RSV Long CPE inhibition, luminescence
# Test: as above
# Details: not given
row,SMILES,IC50
1,Cc1ccc(Cn2c(=O)n(Cc3ccc(C(=O)Nc4ccncc4)cc3)c(=O)c3ccccc32)cc1,6.29 µM
2,Cc1ccc(C)c(NC(=O)[C@@H]2CCCN2S(=O)(=O)c2cccc3cccnc23)c1,1.5 µM and 1.7 µM
3,COCCCNC(=O)c1ccc(Cn2c(=O)c3ccccc3n(Cc3cccc(Br)c3)c2=O)cc1,2.15 µM

# Other lines, results leading:
row,IC50,SMILES
1,5 µM,COCCCNC(=O)c1ccc(Cn2c(=O)c3ccccc3n(Cc3ccc(F)cc3)c2=O)cc1
2,9.29 µM,Cc1ccc(Cn2c(=O)n(Cc3ccc(C(=O)NCCCN(C)C)cc3)c(=O)c3ccccc32)cc1
3,1.8 µM,Cc1ccc(Cn2c(=O)n(Cc3ccc(C(=O)NC(C)(C)C)cc3)c(=O)c3ccccc32)cc1
4,1.72 µM,CCOCCCNC(=O)c1ccc(Cn2c(=O)c3ccccc3n(Cc3ccc(C)cc3)c2=O)cc1
5,1.66 µM,Cc1ccc(Cn2c(=O)n(Cc3ccc(C(=O)NCCCOC(C)C)cc3)c(=O)c3ccccc32)cc1
